In brackets after ≈: the same amount, converted by molar mass. Like-named read-outs stand apart in the source and are kept apart here.
Assays:
B. anthracis NADS = B. anthracis NADS (Bacillus anthracis, UniProt Q81RP3); experiment: biochemical
[1] = system: Bacillus anthracis Sterne; experiment: microbe, parasite or virus in culture; assay type: cell-based; details: read-out: B.a. MIC

Chain of B. anthracis NADS (Q81RP3 whole entry, looked up): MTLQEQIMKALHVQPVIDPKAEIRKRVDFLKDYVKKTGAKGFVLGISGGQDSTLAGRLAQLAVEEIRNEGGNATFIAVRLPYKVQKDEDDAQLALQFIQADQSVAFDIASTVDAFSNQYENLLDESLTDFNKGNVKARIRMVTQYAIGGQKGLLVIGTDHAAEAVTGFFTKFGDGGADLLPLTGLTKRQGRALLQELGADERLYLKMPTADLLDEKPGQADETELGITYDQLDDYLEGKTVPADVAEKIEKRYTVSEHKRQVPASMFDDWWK

SMILES	IC50 (B. anthracis NADS)	IC50 (B. anthracis NADS; read-out: NADs IC50)	MIC [1]
N/C(=N\OC(=O)c1ccc(Cl)c(Cl)c1)c1cccc(CSc2ccccn2)c1 [Compound 5775]	290 µM		
O=C(Cn1cc(/C=C/c2[nH]c(=O)[nH]c(=O)c2[N+](=O)[O-])c2ccccc21)Nc1ccc(F)cc1 [Compound 5615]	55.4 µM	55.4 µM	
O=[N+]([O-])c1ccc(-c2cnc(N/N=C/c3cccc([N+](=O)[O-])c3)nc2)cc1 [Compound 5591]	160 µM		
NC(=O)c1ccc(/N=C/c2cc([N+](=O)[O-])ccc2Cl)cc1 [Compound 5679]	262 µM		
COc1ccc(NC(=O)Nc2cccc(NC(=O)Nc3ccc(OC)cc3)c2F)cc1 [Compound 5707]	253 µM		
CCc1ccc(S(=O)(=O)Nc2c([N+](=O)[O-])ccc3ccccc23)cc1 [Compound 5599]			3.75 µM (≈ 1.34 µg/mL)
O=C(Nc1cccc(/N=C/c2cc([N+](=O)[O-])ccc2O)c1)c1ccc(Cl)cc1Cl [Compound 5691]	106 µM		

— publication PMC2666046 (Bioorganic & medicinal chemistry letters, 2009)
